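48-hour exposure; five concentrations; linearly interpolated endpoints. GI50 = concentration required for 50% inhibition of growth.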 The source made the active and inactive calls. Rule as the data show it: active = GI50 up to about 1.1 µM and inactive = higher.
Key:
Assay in all cases: growth of human tumour cells (NCI), 48 h
[1] = system: UACC-257
[2] = system: A549
[3] = system: M14
[4] = system: SK-MEL-2
[5] = system: HT-29
[6] = system: SNB-19
[7] = system: EKVX
[8] = system: XF498
[9] = system: HOP-18
[10] = system: HL-60
[11] = system: HCT-15
[12] = system: MOLT-4
[13] = system: IGROV-1
[14] = system: SF-295
[15] = system: HCT-116
[16] = system: OVCAR-5
[17] = system: HOP-62
[18] = system: A498
[19] = system: OVCAR-3
[20] = system: UO-31
[21] = system: TK-10
[22] = system: LOX IMVI
[23] = system: SK-MEL-28
[24] = system: OVCAR-8
[25] = system: HCC 2998
[26] = system: CAKI-1
[27] = system: SF-268
[28] = system: SN12C
[29] = system: NCI-H522
[30] = system: UACC-62
[31] = system: M19-MEL
[32] = system: SK-MEL-5
[33] = system: SW-620
[34] = system: CCRF-CEM
[35] = system: COLO 205
[36] = system: KM-20L2
[37] = system: DLD-1
[38] = system: SF-539
[39] = system: Malme-3M
[40] = system: SK-OV-3
[41] = system: DMS-273
[42] = system: NCI-H460
[43] = system: 786-0
[44] = system: U-251
[45] = system: OVCAR-4
[46] = system: K562
[47] = system: RPMI-8226
[48] = system: KM12
[49] = system: SNB-78
[50] = system: DMS-114
[51] = system: RXF 631
[52] = system: ACHN
[53] = system: HOP-92
[54] = system: SR
[55] = system: SNB-75
[56] = system: NCI-H226
[57] = system: RXF 393
[58] = system: LXFL 529
[59] = system: NCI-H23

COc1ccc(OCC(=O)O)c2c1CCC(C)C2=O (stereo not given)
GI50 [1]: > 100 µM (inactive)
GI50 [2]: > 100 µM (inactive)
GI50 [3]: > 100 µM (inactive)
GI50 [4]: > 100 µM (inactive)
GI50 [5]: > 100 µM (inactive)
GI50 [6]: > 100 µM (inactive)
GI50 [7]: > 100 µM (inactive)
GI50 [8]: > 100 µM (inactive)
GI50 [9]: 94.6 µM (inactive)
GI50 [10]: > 100 µM (inactive)
GI50 [11]: > 100 µM
GI50 [12]: > 100 µM (inactive)
GI50 [13]: > 100 µM (inactive)
GI50 [14]: > 100 µM (inactive)
GI50 [15]: > 100 µM (inactive)
GI50 [16]: > 100 µM (inactive)
GI50 [17]: > 100 µM (inactive)
GI50 [18]: > 100 µM (inactive)
GI50 [19]: > 100 µM (inactive)
GI50 [20]: > 100 µM (inactive)
GI50 [21]: > 100 µM (inactive)
GI50 [22]: > 100 µM (inactive)
GI50 [23]: > 100 µM (inactive)
GI50 [24]: > 100 µM (inactive)
GI50 [25]: > 100 µM (inactive)
GI50 [26]: > 100 µM (inactive)
GI50 [27]: > 100 µM (inactive)
GI50 [28]: > 100 µM (inactive)
GI50 [29]: > 100 µM (inactive)
GI50 [30]: > 100 µM (inactive)
GI50 [31]: > 100 µM (inactive)
GI50 [32]: > 100 µM (inactive)
GI50 [33]: > 100 µM (inactive)
GI50 [34]: > 100 µM (inactive)
GI50 [35]: > 100 µM (inactive)
GI50 [36]: > 100 µM (inactive)
GI50 [37]: > 100 µM (inactive)
GI50 [38]: > 100 µM (inactive)
GI50 [39]: > 100 µM (inactive)
GI50 [40]: > 100 µM (inactive)
GI50 [41]: > 100 µM (inactive)
GI50 [42]: > 100 µM (inactive)
GI50 [43]: > 100 µM (inactive)
GI50 [44]: > 100 µM (inactive)
GI50 [45]: > 100 µM (inactive)
GI50 [46]: > 100 µM (inactive)
GI50 [47]: > 100 µM (inactive)
GI50 [48]: > 100 µM (inactive)
GI50 [49]: > 100 µM (inactive)
GI50 [50]: > 100 µM (inactive)
GI50 [51]: > 100 µM (inactive)
GI50 [52]: > 100 µM (inactive)

COc1ccc(Cc2nc3ccccc3s2)cc1OC
GI50 [1]: 18.1 µM (inactive)
GI50 [2]: 23.5 µM (inactive)
GI50 [3]: 17.5 µM (inactive)
GI50 [4]: 20.3 µM (inactive)
GI50 [53]: 17.7 µM (inactive)
GI50 [54]: 18.9 µM (inactive)
GI50 [5]: 18.7 µM (inactive)
GI50 [6]: 32.5 µM (inactive)
GI50 [7]: 20.8 µM (inactive)
GI50 [55]: 18.8 µM (inactive)
GI50 [8]: 15.3 µM (inactive)
GI50 [9]: 23.9 µM (inactive)
GI50 [10]: 18.4 µM (inactive)
GI50 [11]: 24.2 µM
GI50 [12]: 20.2 µM (inactive)
GI50 [13]: 18.9 µM (inactive)
GI50 [14]: 15.1 µM (inactive)
GI50 [15]: 15.8 µM (inactive)
GI50 [16]: 22.3 µM (inactive)
GI50 [17]: 29.6 µM (inactive)
GI50 [18]: 23.7 µM (inactive)
GI50 [19]: 17.3 µM (inactive)
GI50 [20]: 16.4 µM (inactive)
GI50 [56]: 21 µM (inactive)
GI50 [21]: 36.2 µM (inactive)
GI50 [57]: 19.6 µM (inactive)
GI50 [23]: 18 µM (inactive)
GI50 [24]: 16.9 µM (inactive)
GI50 [25]: 21.1 µM (inactive)
GI50 [26]: 15.5 µM (inactive)
GI50 [27]: 15.8 µM (inactive)
GI50 [58]: 17.5 µM (inactive)
GI50 [28]: 17.1 µM (inactive)
GI50 [29]: 17.8 µM (inactive)
GI50 [30]: 17.3 µM (inactive)
GI50 [31]: 15.6 µM (inactive)
GI50 [32]: 16.1 µM (inactive)
GI50 [33]: 18.5 µM (inactive)
GI50 [59]: 18.1 µM (inactive)
GI50 [34]: 14.8 µM (inactive)
GI50 [35]: 14.6 µM (inactive)
GI50 [36]: 19.3 µM (inactive)
GI50 [37]: 16.6 µM (inactive)
GI50 [38]: 17.3 µM (inactive)
GI50 [39]: 17.1 µM (inactive)
GI50 [40]: 28.2 µM (inactive)
GI50 [41]: 15.6 µM (inactive)
GI50 [42]: 19.7 µM (inactive)
GI50 [43]: 17.9 µM (inactive)
GI50 [44]: 14.6 µM (inactive)
GI50 [45]: 16.4 µM (inactive)
GI50 [46]: 20.3 µM (inactive)
GI50 [47]: 23.7 µM (inactive)
GI50 [48]: 17.4 µM (inactive)
GI50 [49]: 19.8 µM (inactive)
GI50 [50]: 15.7 µM (inactive)
GI50 [51]: 17.7 µM (inactive)
GI50 [52]: 16.8 µM (inactive)

— ChEMBL document CHEMBL1201862, “PubChem BioAssay data set” (2004)
